The results in this text go back to PubChem BioAssay AID192 (DTP/NCI, 2004).

In the assay the test system is BDF1 mice, B16 melanoma ip, median survival T/C. The experiment in a line: NCI In Vivo Anticancer Drug Screen. Data for tumor model B16 Melanoma (intraperitoneal) in B6D2F1 (BDF1) mice. The conditions noted are these: endpoint: median survival time, higher = longer survival. The procedure, abridged: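 Read-out: survival or tumor size, given as treated/control ratio. Controls received vehicle only; animals bore transplantable tumors.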

“And” between values parts separate entries of the source, which are not always exact repeats. Equal entries are not always repeated. Inconclusive results and toxic doses are left out.

Take `CC(=O)O[C@@]1(C)[C@@H](C)C(=O)O[C@@H]2CCN3CC=C(COC(=O)[C@]1(C)O)[C@H]23`: the T/C reads like this: (dose: 12.5 mg/kg/injection, schedule: Q01DX009 (ip), vehicle: saline) 119 % of control; (dose: 50.0 mg/kg/injection, schedule: Q01DX009 (ip), vehicle: saline) 119 % of control; (dose: 100.0 mg/kg/injection, schedule: Q01DX009 (ip), vehicle: saline) 97 % of control.

As to `COc1ccc(NC(=O)Nc2ccc(C)cc2C)cc1`, the T/C (dose: 25.0 mg/kg/injection, schedule: Q01DX009 (ip), vehicle: Klucel (hydroxypropylcellulose) (HPC)) was 106 % of control; the T/C (dose: 50.0 mg/kg/injection, schedule: Q01DX009 (ip), vehicle: Klucel (hydroxypropylcellulose) (HPC)) is 101 % of control; the T/C (dose: 100.0 mg/kg/injection, schedule: Q01DX009 (ip), vehicle: Klucel (hydroxypropylcellulose) (HPC)) is 106 % of control; the T/C (dose: 200.0 mg/kg/injection, schedule: Q01DX009 (ip), vehicle: Klucel (hydroxypropylcellulose) (HPC)) is 93 % of control.

In the case of `COc1ccc2c(c1OC(C)=O)-c1cc(OC(C)=O)cc3c1C(C2)N(C(=O)CN(CCCl)CCCl)CC3` (stereo unspecified), the T/C (dose: 1.56 mg/kg/injection, schedule: Q04DX003 (ip), vehicle: DMSO) was 92 % of control; the T/C (dose: 3.13 mg/kg/injection, schedule: Q04DX003 (ip), vehicle: DMSO) was 108 % of control; the T/C (dose: 6.25 mg/kg/injection, schedule: Q04DX003 (ip), vehicle: DMSO) is 115 % of control; the T/C (dose: 25.0 mg/kg/injection, schedule: Q04DX003 (ip), vehicle: DMSO) was 165 % of control.

Take `CC(C)C(Br)C(=O)NCC(=O)NCC(=O)O` (stereo unspecified): the T/C by setting is: (dose: 200.0 mg/kg/injection, schedule: Q01DX009 (ip), vehicle: saline with Tween-80) 91 % of control; (dose: 400.0 mg/kg/injection, schedule: Q01DX009 (ip), vehicle: saline with Tween-80) 87 % of control.

As to `CC(=O)Nc1cc(N(CCOS(C)(=O)=O)CCOS(C)(=O)=O)ccc1N=O`, the T/C (dose: 75.0 micrograms/kg/injection, schedule: Q04DX003 (ip), vehicle: saline) was 111 % of control; the T/C (dose: 100.0 micrograms/kg/injection, schedule: Q01DX009 (ip), vehicle: saline) was 121 % of control; the T/C (dose: 150.0 micrograms/kg/injection, schedule: Q04DX003 (ip), vehicle: saline) is 110 % of control; the T/C (dose: 300.0 micrograms/kg/injection, schedule: Q04DX003 (ip), vehicle: saline) is 109 % of control.

On to `COC(=O)c1cc2cc3c(c(O)c2c(=O)o1)OC1(Cc2c(O)c4c(c(O)c2O1)C(=O)C(OC)CC4=O)CC3O` (stereo unspecified), for which the T/C reads like this: (dose: 3.13 mg/kg/injection, schedule: Q01DX009 (ip), vehicle: saline with Tween-80) 91 % of control; (dose: 6.25 mg/kg/injection, schedule: Q01DX009 (ip), vehicle: saline with Tween-80) 91 % of control and 93 % of control; (dose: 12.5 mg/kg/injection, schedule: Q01DX009 (ip), vehicle: saline with Tween-80) 86 % of control; (dose: 25.0 mg/kg/injection, schedule: Q01DX009 (ip), vehicle: saline with Tween-80) 86 % of control and 88 % of control.
